# Literature values, collected in US9227980B2, “Methods for the purification of cucurbituril” (CAMBRIDGE ENTERPRISE LIMITED, priority 2009, dated 2016).
structure (smiles),measurement,value
O=C1N2CN3C(=O)N4CN5C(=O)N6CN7C(=O)N8CN9C(=O)N%10CN1C1C2N2CN%11C(=O)N(CN%12C(=O)N(CN%13C(=O)N(CN%14C(=O)N(CN1C2=O)C%10C9%14)C8C7%13)C6C5%12)C4C3%11 (centres unmarked) [CB[5]],solubility in water (qualitative),soluble in water
O=C1N2CN3C(=O)N4CN5C(=O)N6CN7C(=O)N8CN9C(=O)N%10CN%11C(=O)N%12CN1C1C2N2CN%13C(=O)N(CN%14C(=O)N(CN%15C(=O)N(CN%16C(=O)N(CN%17C(=O)N(CN1C2=O)C%12C%11%17)C%10C9%16)C8C7%15)C6C5%14)C4C3%13 (centres unmarked) [CB[6]],solubility in water (qualitative),are not
